{"source": "paper PMC5352234", "about": "(International Journal of Nanomedicine, 2017)", "key": {"[1]": {"assay": "Aggregation of unmodified AuNPs by peptide", "assay_type": "physicochemical", "settings": "AuNPs 2.4 nM, IP20 5 µM, PKA (where present) 500 U/mL; UV-Vis, TEM"}, "PKA [2]": {"molecular_target": "T1, PKA (Bos taurus, UniProt P00517)", "settings": "cited from earlier work"}, "PKA [3]": {"molecular_target": "T1, PKA", "assay": "AuNPs/Fc-peptide electrochemical", "settings": "thiolated IP20/MCH gold electrode; Fc-peptide 4 µM or AuNPs 2.4 nM"}, "[4]": {"settings": "substrate/ATP, Zr^4+-DNA-AuNPs network, ref [22]"}, "[5]": {"settings": "substrate/ATP-S, AuNPs/MWNTs, ref [30]"}, "[6]": {"settings": "substrate/ATP, Biotinylated antiphosphoserine antibody/SA-AuNPs-HRP, ref [19]"}, "[7]": {"settings": "substrate/ATP, Fe^3+/H2O2, ref [20]"}}, "note": "Read-outs that look alike come from different tables or passages of the source."}
{"substance": "RTGRRNAIHD", "values": [{"measurement": "effect on AuNPs aggregation / color change", "setting": "[1]", "result": "responsible for triggering the aggregation of AuNPs"}]}
{"substance": "CGGALRRASLG", "values": [{"measurement": "Linear range", "setting": "PKA [2]; substrate/ATP, Phos-tag-biotin/avidin-HRP, ref [23]", "result": "500–25,000 mU/mL"}]}
{"substance": "CLRRASLG", "values": [{"measurement": "Detection limit", "setting": "PKA [2]; [4]", "result": 30, "unit": "mU/mL"}, {"measurement": "Linear range", "setting": "PKA [2]; [4]", "result": "30–40,000 mU/mL"}]}
{"substance": "Fc-LRRASLG", "values": [{"measurement": "Detection limit", "setting": "PKA [2]; substrate/ATP, bis(Zn^2+-dipicolylamine), ref [21]", "result": 100, "unit": "mU/mL"}]}
{"substance": "FcCH2CO-RTGRRNAIHD [Fc-peptide]", "values": [{"measurement": "DPV signal/peak, single component only (Fc-peptide alone or AuNPs alone)", "setting": "PKA [3]", "result": "no DPV peak was observed"}]}
{"substance": "CLRRASIG", "values": [{"measurement": "Detection limit", "setting": "PKA [2]; [5]", "result": 90, "unit": "mU/mL"}, {"measurement": "Linear range", "setting": "PKA [2]; [5]", "result": "100–1,000 mU/mL"}]}
{"substance": "CALRRASLGW", "values": [{"measurement": "Detection limit", "setting": "PKA [2]; [6]", "result": 1, "unit": "mU/mL"}, {"measurement": "Linear range", "setting": "PKA [2]; [6]", "result": "1–10 mU/mL"}]}
{"substance": "LRRASLG", "values": [{"measurement": "Detection limit", "setting": "PKA [2]; substrate/biotin-ATP, SA-AuNPs, ref [27]", "result": "10,000 mU/mL"}]}
{"substance": "LRRASLGGGGC", "values": [{"measurement": "Detection limit", "setting": "PKA [2]; [7]", "result": 100, "unit": "mU/mL"}, {"measurement": "Linear range", "setting": "PKA [2]; [7]", "result": "100–50,000 mU/mL"}]}
